Experimental data reported in ChEMBL document CHEMBL1671688, “Raltegravir penetration in seminal plasma of healthy volunteers” (Antimicrob Agents Chemother, 2010).

What was measured:
Format in all cases: ADME, organism-based
[1] = Drug level in semen of healthy human at […] administered twice daily measured on day 5 by HPLC; conditions: male, read-out: Drug uptake
[2] = Drug level in blood of healthy human at […] administered twice daily measured on day 5 by HPLC; conditions: read-out: Drug uptake
[3] = Ratio of drug level in semen to blood in healthy human at […] administered twice daily measured on day 5 by HPLC; conditions: male
[4] = Drug level in semen of healthy human at […] administered twice daily measured after 2 to 4 hrs by HPLC; conditions: in vivo
Blood = experiment: Drug level in blood of healthy human at […] administered twice daily measured after 2 to 4 hrs by HPLC; conditions: in vivo
[5] = Ratio of drug level in semen to blood in healthy human at […] administered twice daily measured after 2 to 4 hrs by HPLC; conditions: male
[6] = Drug level in semen of healthy human at […] administered twice daily measured 5 hrs post dosing by HPLC; conditions: male, read-out: Drug uptake
[7] = Ratio of drug level in semen to blood in healthy human at […] administered twice daily measured 5 hrs post dosing by HPLC; conditions: male

concentration at 5 day [1]: 212 ng/mL
concentration at 5 day [2]: 51 ng/mL
Kp at 5 day [3]: 3.78
Drug uptake [4]: 953 ng/mL
Drug uptake (Blood): 651 ng/mL
Kp [5]: 1.62
concentration at 5 h [6]: 345 ng/mL
Kp at 5 h [7]: 1.42
Structure (SMILES): Cc1nnc(C(=O)NC(C)(C)c2nc(C(=O)NCc3ccc(F)cc3)c(O)c(=O)n2C)o1 [RALTEGRAVIR]
